{"source": "patent US10821195B2", "about": "“Compositions for therapeutics, targeted PET imaging and methods of their use” (Memorial Sloan Kettering Cancer Center, priority 2015, dated 2020)", "key": {"[1]": {"experiment": "Biodistribution and clearance of ^89Zr-HOPO and ^89Zr-DFO in healthy mice", "type": "in vivo, healthy athymic nude mice", "parameters": "biodistribution Spleen / biodistribution Stomach / biodistribution Large Intestine / biodistribution Small Intestine / biodistribution Kidney / biodistribution Bladder / biodistribution Muscle / biodistribution Bone / biodistribution Tail / biodistribution Blood / biodistribution Heart / biodistribution Lung / biodistribution Gall Bladder / biodistribution Liver: unit not given here", "excerpt": "Significant uptake of ^89Zr-HOPO occurs in the gall bladder and intestines as well as the kidney. […] As ^89Zr-DFO is cleared exclusively through the kidneys and not through the hepatobiliary system, it is excreted from the body faster than ^89Zr-HOPO, as evidenced by the blood clearance curve (FIG. 10). While not wishing to be bound to theory, upon conjugation to an antibody, the pharmacokinetics of a ^89Zr-HOPO complex comprising ^89Zr-HOPO and an antibody can be superseded by those of the biomacromolecule, meaning that a difference in clearance pathways between ^89Zr-HOPO and ^89Zr-DFO should not be a concern. However, over the short circulation time of the Zr-ligand complexes, neither DFO nor HOPO show any signs of instability or bone accumulation."}, "[2]": {"experiment": "EDTA transchelation challenge of ^89Zr complexes", "type": "physicochemical", "conditions": "50-fold excess of EDTA, 37° C., various pHs, 7 days", "excerpt": "(§1) In contrast, ^89Zr-HOPO is shown to be approximately impervious to the EDTA. […] This represents a significant improvement in the stability of the Zr-ligand complex at lower pH. […] Initially activity is seen in the bladder, gall bladder, and intestines."}, "FIG. 2": {"experiment": "FIG. 2", "excerpt": "Table printed on a drawing sheet, FIG. 2\nas §1\nFirst reader's note: Cell hatching encodes the percent-intact class given in the legend; the values show stability of the radiometal-chelator complexes against EDTA transchelation."}, "[3]": {"experiment": "Stability of ^89Zr complexes in human serum at 37° C. for 7 d (ITLC, SEC)", "method": "Seven day old samples of the Zr-ligand complexes were run down a size exclusion column to differentiate protein and ligand.\nSerum stability and immunoreactivity of ^89Zr-complexes were evaluated. To determine the stability in serum, ^89Zr-complexes were incubated in human serum at 37° C. for 7 d. The percentage of intact species was monitored by ITLC (Table 9).\n^89Zr-ligand and ^89Zr-ligand-antibody complexes were prepared according to the radiolabeling protocol as described above. For each ^89Zr complex, samples were made consisting of 900 μL human serum and 100 μL of the ^89Zr species and were placed in a heat block at 37° C. with agitation. Samples were monitored using radio-TLC before being added to the serum and then after 1 week of incubation. The stability of the complexes was measured as the percentage of ^89Zr that was retained at the origin of the ITLC strip and therefore still intact."}}, "note": "Where “and” joins values, the source holds several entries; their conditions need not be identical. Equal values may be shown once.", "data": [{"compound": "CC(=O)N1CCCCCNC(=O)CCC(=O)N2CCCCCNC(=O)CCC(=O)N(CCCCCN)[O][89Zr+]([O]1)[O]2", "note": "[^89Zr-DFO]", "values": [{"measurement": "biodistribution Bladder", "setting": "[1]; 10 min", "result": "2.50 ± 0.48"}, {"measurement": "biodistribution Blood", "setting": "[1]; 10 min", "result": "5.11 ± 0.90"}, {"measurement": "biodistribution Bone", "setting": "[1]; 10 min", "result": "0.43 ± 0.10"}, {"measurement": "biodistribution Gall Bladder", "setting": "[1]; 10 min", "result": "1.57 ± 0.25"}, {"measurement": "biodistribution Heart", "setting": "[1]; 10 min", "result": "2.17 ± 0.62"}, {"measurement": "biodistribution Kidney", "setting": "[1]; 10 min", "result": "14.44 ± 5.88"}, {"measurement": "biodistribution Large Intestine", "setting": "[1]; 10 min", "result": "0.43 ± 0.13"}, {"measurement": "biodistribution Liver", "setting": "[1]; 10 min", "result": "0.88 ± 0.49"}, {"measurement": "biodistribution Lung", "setting": "[1]; 10 min", "result": "2.16 ± 1.08"}, {"measurement": "biodistribution Muscle", "setting": "[1]; 10 min", "result": "0.73 ± 0.56"}, {"measurement": "biodistribution Small Intestine", "setting": "[1]; 10 min", "result": "0.94 ± 0.16"}, {"measurement": "biodistribution Spleen", "setting": "[1]; 10 min", "result": "0.37 ± 0.22"}, {"measurement": "biodistribution Stomach", "setting": "[1]; 10 min", "result": "0.62 ± 0.28"}, {"measurement": "biodistribution Tail", "setting": "[1]; 10 min", "result": "5.13 ± 2.92"}, {"measurement": "biodistribution Bladder", "setting": "[1]; 1 h", "result": "2.47 ± 1.30"}, {"measurement": "biodistribution Blood", "setting": "[1]; 1 h", "result": "0.10 ± 0.04"}, {"measurement": "biodistribution Bone", "setting": "[1]; 1 h", "result": "0.07 ± 0.04"}, {"measurement": "biodistribution Gall Bladder", "setting": "[1]; 1 h", "result": "0.47 ± 0.14"}, {"measurement": "biodistribution Heart", "setting": "[1]; 1 h", "result": "0.06 ± 0.02"}, {"measurement": "biodistribution Kidney", "setting": "[1]; 1 h", "result": "1.39 ± 0.55"}, {"measurement": "biodistribution Large Intestine", "setting": "[1]; 1 h", "result": "0.02 ± 0.01"}, {"measurement": "biodistribution Liver", "setting": "[1]; 1 h", "result": "0.24 ± 0.07"}, {"measurement": "biodistribution Lung", "setting": "[1]; 1 h", "result": "0.14 ± 0.04"}, {"measurement": "biodistribution Muscle", "setting": "[1]; 1 h", "result": "0.02 ± 0.01"}, {"measurement": "biodistribution Small Intestine", "setting": "[1]; 1 h", "result": "0.35 ± 0.17"}, {"measurement": "biodistribution Spleen", "setting": "[1]; 1 h", "result": "0.06 ± 0.02"}, {"measurement": "biodistribution Stomach", "setting": "[1]; 1 h", "result": "1.10 ± 0.51"}, {"measurement": "biodistribution Tail", "setting": "[1]; 1 h", "result": "0.26 ± 0.05"}, {"measurement": "biodistribution Bladder", "setting": "[1]; 4 h", "result": "1.22 ± 0.77"}, {"measurement": "biodistribution Blood", "setting": "[1]; 4 h", "result": "0.03 ± 0.01"}, {"measurement": "biodistribution Bone", "setting": "[1]; 4 h", "result": "0.04 ± 0.02"}, {"measurement": "biodistribution Gall Bladder", "setting": "[1]; 4 h", "result": "0.26 ± 0.15"}, {"measurement": "biodistribution Heart", "setting": "[1]; 4 h", "result": "0.03 ± 0.01"}, {"measurement": "biodistribution Kidney", "setting": "[1]; 4 h", "result": "1.10 ± 0.44"}, {"measurement": "biodistribution Large Intestine", "setting": "[1]; 4 h", "result": "0.62 ± 0.55"}, {"measurement": "biodistribution Liver", "setting": "[1]; 4 h", "result": "0.12 ± 0.03"}, {"measurement": "biodistribution Lung", "setting": "[1]; 4 h", "result": "0.04 ± 0.02"}, {"measurement": "biodistribution Muscle", "setting": "[1]; 4 h", "result": "0.01 ± 0.01"}, {"measurement": "biodistribution Small Intestine", "setting": "[1]; 4 h", "result": "0.04 ± 0.02"}, {"measurement": "biodistribution Spleen", "setting": "[1]; 4 h", "result": "0.03 ± 0.01"}, {"measurement": "biodistribution Stomach", "setting": "[1]; 4 h", "result": "0.06 ± 0.02"}, {"measurement": "biodistribution Tail", "setting": "[1]; 4 h", "result": "0.14 ± 0.08"}, {"measurement": "biodistribution Bladder", "setting": "[1]; 12 h", "result": "0.69 ± 0.31"}, {"measurement": "biodistribution Blood", "setting": "[1]; 12 h", "result": "0.01 ± 0.00"}, {"measurement": "biodistribution Bone", "setting": "[1]; 12 h", "result": "0.03 ± 0.01"}, {"measurement": "biodistribution Gall Bladder", "setting": "[1]; 12 h", "result": "0.16 ± 0.14"}, {"measurement": "biodistribution Heart", "setting": "[1]; 12 h", "result": "0.02 ± 0.00"}, {"measurement": "biodistribution Kidney", "setting": "[1]; 12 h", "result": "0.36 ± 0.13"}, {"measurement": "biodistribution Large Intestine", "setting": "[1]; 12 h", "result": "0.07 ± 0.05"}, {"measurement": "biodistribution Liver", "setting": "[1]; 12 h", "result": "0.06 ± 0.02"}, {"measurement": "biodistribution Lung", "setting": "[1]; 12 h", "result": "0.02 ± 0.01"}, {"measurement": "biodistribution Muscle", "setting": "[1]; 12 h", "result": "0.01 ± 0.00"}, {"measurement": "biodistribution Small Intestine", "setting": "[1]; 12 h", "result": "0.01 ± 0.01"}, {"measurement": "biodistribution Spleen", "setting": "[1]; 12 h", "result": "0.02 ± 0.01"}, {"measurement": "biodistribution Stomach", "setting": "[1]; 12 h", "result": "0.01 ± 0.00"}, {"measurement": "biodistribution Tail", "setting": "[1]; 12 h", "result": "0.13 ± 0.05"}, {"measurement": "biodistribution Bladder", "setting": "[1]; 24 h", "result": "0.56 ± 0.41"}, {"measurement": "biodistribution Blood", "setting": "[1]; 24 h", "result": "0.02 ± 0.02"}, {"measurement": "biodistribution Bone", "setting": "[1]; 24 h", "result": "0.06 ± 0.01"}, {"measurement": "biodistribution Gall Bladder", "setting": "[1]; 24 h", "result": "0.23 ± 0.21"}, {"measurement": "biodistribution Heart", "setting": "[1]; 24 h", "result": "0.02 ± 0.01"}, {"measurement": "biodistribution Kidney", "setting": "[1]; 24 h", "result": "1.12 ± 0.33"}, {"measurement": "biodistribution Large Intestine", "setting": "[1]; 24 h", "result": "0.02 ± 0.01"}, {"measurement": "biodistribution Liver", "setting": "[1]; 24 h", "result": "0.11 ± 0.02"}, {"measurement": "biodistribution Lung", "setting": "[1]; 24 h", "result": "0.04 ± 0.01"}, {"measurement": "biodistribution Muscle", "setting": "[1]; 24 h", "result": "0.01 ± 0.00"}, {"measurement": "biodistribution Small Intestine", "setting": "[1]; 24 h", "result": "0.02 ± 0.01"}, {"measurement": "biodistribution Spleen", "setting": "[1]; 24 h", "result": "0.02 ± 0.01"}, {"measurement": "biodistribution Stomach", "setting": "[1]; 24 h", "result": "0.01 ± 0.01"}, {"measurement": "biodistribution Tail", "setting": "[1]; 24 h", "result": "0.08 ± 0.02"}, {"measurement": "clearance route", "setting": "[1]; healthy mice", "result": "clears exclusively through the kidneys"}, {"measurement": "stability to transchelation by EDTA", "setting": "[2]", "result": "susceptible to transchelation"}, {"measurement": "% INTACT STARTING SPECIES BY INCUBATION TIME | 1 h", "setting": "FIG. 2", "result": "99.9±0.2% and 97.1±0.8% and 86.6±1.5%"}, {"measurement": "% INTACT STARTING SPECIES BY INCUBATION TIME | 3 h", "setting": "FIG. 2", "result": "99.3±0.6% and 98.8±0.9% and 98.7±0.8% and 96.2±0.6% and 90.7±1.7% and 55.7±3.8%"}, {"measurement": "stability in human serum (ITLC and SEC)", "setting": "[3]; bare ligand complexes, one week", "result": "stable in serum over 7 days"}]}, {"compound": "CC(=O)N(O)CCCCCNC(=O)CCC(=O)N(O)CCCCCNC(=O)CCC(=O)N(O)CCCCCNC(=S)Nc1ccc(N=C=S)cc1", "note": "(89Zr complex, metal not drawn) [p-SCN-Bn-DFO]", "values": [{"measurement": "percentage of intact species, Ligand Only", "setting": "[3]; ^89Zr-ligand complex, human serum, 7 d, ITLC", "result": "97.7±0.2", "unit": "%"}]}]}
